{"source": "patent US7989438B2", "about": "“Therapeutic compounds” (Istituto di Ricerche di Biologia Molecolare P. Angeletti SpA, priority 2007, dated 2011)", "tested_on": "HCV subgenomic replication", "experiment": "Cell based HCV replication assay (subgenomic replicon in Huh-7 cells, NS3 Cell-ELISA)", "conditions": "activity ranges", "from_the_text": "Cell clones that stably maintain subgenomic HCV replicon were obtained by transfecting Huh-7 cells with an RNA replicon identical to I377neo/NS3-3′/wt described by Lohmann et al. (1999) (EMBL-genbank No. AJ242652), followed by selection with neomycin sulfate (G418). Viral replication was monitored by measuring the expression of the NS3 protein by an ELISA assay performed directly on cells grown in 96 wells microtiter plates (Cell-ELISA) using the anti-NS3 monoclonal antibody 10E5/24 (as described in published International application WO 02/59321). Cells were seeded into 96 well plates at a density of 10^4 cells per well in a final volume of 0.1 ml of DMEM/10% FCS. Two hours after plating, 50 μl of DMEM/10% FCS containing a 3× concentration of inhibitor were added, cells were incubated for 96 hours and then fixed for 10 minutes with ice-cold isopropanol. Each condition was tested in duplicate and average absorbance values were used for calculations. The cells were washed twice with PBS, blocked with 5% non-fat dry milk in PBS+0.1% Triton X100+0.02% SDS (PBSTS) and then incubated o/n at 4° C. with the 10E5/24 mab diluted in Milk/PBSTS. After washing 5 times with PBSTS, the cells were incubated for 3 hours at room temperature with Fc specific anti-mouse IgG conjugated to alkaline phosphatase (Sigma), diluted in Milk/PBSTS. After washing again as above, the reaction was developed with p-Nitrophenyl phosphate disodium substrate (Sigma) and the absorbance at 405/620 nm read at intervals. For calculations, we used data sets where samples incubated without inhibitors had absorbance values comprised between 1 and 1.5. The inhibitor concentration that reduced by 50% the expression of NS3 (IC50) was calculated by fitting the data to the Hill equation, Fraction inhibition=1−(Ai−b)/(A0−b)=[I]^n/([I]^n+[…]) where: • Ai=absorbance value of HBI10 cells supplemented with the indicated inhibitor concentration. • A0=absorbance value of HBI10 cells incubated without inhibitor. • b=absorbance value of Huh-7 cells plated at the same density in the same microtiter plates and incubated without inhibitor. • n=Hill coefficient.", "key": {"[1]": {"conditions": "Table A, Huh-7 replicon cells, 96 hours, read-out: IC50 (nM), Inhibition of HCV subgenomic replication"}, "[2]": {"conditions": "Table 5, various macrocycles, read-out: IC50* (nM), Inhibition of HCV subgenomic replication"}, "[3]": {"conditions": "Hepatitis C virus, Huh-7, Table 5, various macrocycles, read-out: IC50* (nM), Inhibition of HCV subgenomic replication"}}, "note": "Like-named read-outs stand apart in the source and are kept apart here.", "data": [{"molecule": "CN1CCCCN(C)S(=O)(=O)NC(=O)c2ccc3c(C4CCCCC4F)c4n(c3c2)CC(COc2ccccc2-4)C1", "note": "(single isomer, unassigned) [Compound A16, (7R,S)-14-[(1R,2S) or (1S,2R)-2-fluorocyclohexyl]-18,23-dimethyl-7,8-dihydro-6H-11,7-(methanoiminothioiminobutanoiminomethano)indolo[1,2-e][1,5]benzoxazocin-15-one 17,17-dioxide]", "values": [{"measurement": "IC50", "setting": "[1]", "value": "25 to 150", "unit": "nM"}]}, {"molecule": "COc1ccc2c(c1)OCC1CCN(C)CCCN(C)S(=O)(=O)NC(=O)c3ccc4c(C5CCCCC5F)c-2n(c4c3)C1", "note": "(single isomer, unassigned) [Compound A38, 14-[(1R,2S) or (1S,2R)-2-fluorocyclohexyl]-3-methoxy-18,22-dimethyl-7,8-dihydro-6H-7,11-(ethanoiminopropanoiminothioiminomethano)indolo[1,2-e][1,5]benzoxazocin-15-one 17,17-dioxide]", "values": [{"measurement": "IC50", "setting": "[1]", "value": "< 25", "unit": "nM"}]}, {"molecule": "CN1CCOCC2COc3ccccc3-c3c(C4CCCCC4)c4ccc(cc4n3C2)C(=O)NS(=O)(=O)N(C)CC1", "note": "(single isomer, unassigned) [Compound A39, (7R or 7S)-14-cyclohexyl-18,21-dimethyl-7,8-dihydro-6H-7,11-(methanooxyethanoiminoethanoiminothioiminomethano)indolo[1,2-e][1,5]benzoxazocin-15-one 17,17-dioxide]", "values": [{"measurement": "IC50", "setting": "[1]", "value": "< 25", "unit": "nM"}]}, {"molecule": "CN1CCCC2COc3ccccc3-c3c(C4CCCCC4F)c4ccc(cc4n3C2)C(=O)NS(=O)(=O)N(C)CC1", "note": "(single isomer, unassigned) [Compound A40, (7R)-14-[(1R,2S) or (1S,2R)-2-fluorocyclohexyl]-18,21-dimethyl-7,8-dihydro-6H-7,11-(propanoiminoethanoiminothioiminomethano)indolo[1,2-e][1,5]benzoxazocin-15-one 17,17-dioxide]", "values": [{"measurement": "IC50", "setting": "[1]", "value": "< 25", "unit": "nM"}]}, {"molecule": "CN1CCN(C)C2COc3ccccc3-c3c(C4CCCCC4F)c4ccc(cc4n3C2)C(=O)NS(=O)(=O)N(C)CC1", "note": "(single isomer, unassigned) [Example 413, (7R)-14-[(1R,2S) or (1S,2R)-2-fluorocyclohexyl]-18,21,24-trimethyl-7,8-dihydro-6H-7,11-(epiminoethanoiminoethanoiminothioiminomethano)-indolo[1,2-e][1,5]benzoxazocin-15-one 17,17-dioxide]", "values": [{"measurement": "IC50", "setting": "Table 4, various macrocycles, read-out: IC50* (nM), Inhibition of HCV subgenomic replication", "value": "< 25", "unit": "nM"}]}, {"molecule": "CN1CCCN(C)S(=O)(=O)NC(=O)c2ccc3c(C4CCCCC4F)c4n(c3c2)CC(CC1)COc1ccccc1-4", "note": "(single isomer, unassigned) [Example 501, 14-[(1R,2S) or (1S,2R)-2-fluorocyclohexyl]-18,22-dimethyl-7,8-dihydro-6H-7,11-(ethanoiminopropanoiminothioiminomethano)indolo[1,2-e][1,5]benzoxazocin-15-one 17,17-dioxide]", "values": [{"measurement": "IC50", "setting": "[2]", "value": "25 to 150", "unit": "nM"}]}, {"molecule": "CN1CCC2COc3ccccc3-c3c([C@H]4CCCC[C@@H]4F)c4ccc(cc4n3C2)C(=O)NS(=O)(=O)N2CCC1CC2", "note": "(single isomer, unassigned) [Example 502, 30-[(1R,2S) or (1S,2R)-2-fluorocyclohexyl]-23-methyl-18-oxa-2-thia-1,3,10,23-tetraazahexacyclo[22.2.2.1^5,9.1^8,11.1^10,20.0^12,17]hentriaconta-5(31),6,8,11(30),12,14,16-heptaen-4-one 2,2-dioxide]", "values": [{"measurement": "IC50", "setting": "[3]", "value": "25 to 150", "unit": "nM"}]}, {"molecule": "CN1CC2CCN(CC2)S(=O)(=O)NC(=O)c2ccc3c([C@H]4CCCC[C@@H]4F)c4n(c3c2)CC(COc2ccccc2-4)C1", "note": "(single isomer, unassigned) [Example 503, 30-[(1R,2S) or (1S,2R)-2-fluorocyclohexyl]-22-methyl-18-oxa-2-thia-1,3,10,22-tetraazahexacyclo[22.2.2.1^5,9.1^8,11.1^10,20.0^12,17]hentriaconta-5(31),6,8,11(30),12,14,16-heptaen-4-one 2,2-dioxide]", "values": [{"measurement": "IC50", "setting": "[3]", "value": "25 to 150", "unit": "nM"}]}, {"molecule": "CN1CCCN(CCN2CCCC2)S(=O)(=O)NC(=O)c2ccc3c(C4CCCCC4)c4n(c3c2)CC(CC1)COc1ccccc1-4", "note": "(single isomer, unassigned) [Example 505, (7R) or (7S)-14-cyclohexyl-22-methyl-18-(2-pyrrolidin-1-ylethyl)-7,8-dihydro-6H-7,11-(ethanoiminopropanoiminothioiminomethano)indolo[1,2-e][1,5]benzoxazocin-15-one 17,17-dioxide]", "values": [{"measurement": "IC50", "setting": "[2]", "value": "25 to 150", "unit": "nM"}]}, {"molecule": "CC(C)N1CCCN(C)S(=O)(=O)NC(=O)c2ccc3c(C4CCCCC4)c4n(c3c2)CC(CC1)COc1ccccc1-4", "note": "(single isomer, unassigned) [Example 506, (7R) or (7S)-14-cyclohexyl-22-isopropyl-18-methyl-7,8-dihydro-6H-7,11-(ethanoiminopropanoiminothioiminomethano)indolo[1,2-e][1,5]benzoxazocin-15-one 17,17-dioxide]", "values": [{"measurement": "IC50", "setting": "[2]", "value": "< 25", "unit": "nM"}]}, {"molecule": "CN1CCCN(CCO)CCC2COc3ccccc3-c3c(C4CCCCC4)c4ccc(cc4n3C2)C(=O)NS1(=O)=O", "note": "(single isomer, unassigned) [Example 507, (7R) or (7S)-14-cyclohexyl-22-(2-hydroxyethyl)-18-methyl-7,8-dihydro-6H-7,11-(ethanoiminopropanoiminothioiminomethano)indolo[1,2-e][1,5]benzoxazocin-15-one 17,17-dioxide]", "values": [{"measurement": "IC50", "setting": "[2]", "value": "< 25", "unit": "nM"}]}, {"molecule": "CN1CCCN(C)S(=O)(=O)NC(=O)c2ccc3c(C4CCCCC4)c4n(c3c2)CC(CC1)COc1ccccc1-4", "note": "(single isomer, unassigned; (+)) [Compound A13, (+)-14-cyclohexyl-18,22-dimethyl-7,8-dihydro-6H-7,11-(ethanoiminopropanoiminothioiminomethano)indolo[1,2-e][1,5]benzoxazocin-15-one 17,17-dioxide]", "values": [{"measurement": "IC50", "setting": "[1]", "value": "25 to 150", "unit": "nM"}]}, {"molecule": "COc1ccc2c(c1)OCC1CCCN(C)CCN(C)S(=O)(=O)NC(=O)c3ccc4c(C5CCCCC5)c-2n(c4c3)C1", "note": "(single isomer, unassigned; (+)) [Compound A36, (+)-14-cyclohexyl-3-methoxy-18,21-dimethyl-7,8-dihydro-6H-7,11-(propanoiminoethanoiminothioiminomethano)indolo[1,2-e][1,5]benzoxazocin-15-one 17,17-dioxide]", "values": [{"measurement": "IC50", "setting": "[1]", "value": "25 to 150", "unit": "nM"}]}, {"molecule": "CN1CCCN(C)S(=O)(=O)NC(=O)c2ccc3c(C4CCCCC4)c4n(c3c2)CC(CC1)COc1ccccc1-4", "note": "(single isomer, unassigned; (-)) [Compound A14, (−)-14-cyclohexyl-18,22-dimethyl-7,8-dihydro-6H-7,11-(ethanoiminopropanoiminothioiminomethano)indolo[1,2-e][1,5]benzoxazocin-15-one 17,17-dioxide]", "values": [{"measurement": "IC50", "setting": "[1]", "value": "< 25", "unit": "nM"}]}, {"molecule": "COc1ccc2c(c1)OCC1CCN(C)CCCN(C)S(=O)(=O)NC(=O)c3ccc4c(C5CCCCC5)c-2n(c4c3)C1", "note": "(single isomer, unassigned; (-)) [Compound A35, (−)-14-cyclohexyl-3-methoxy-18,22-dimethyl-7,8-dihydro-6H-7,11-(ethanoiminopropanoiminothioiminomethano)indolo[1,2-e][1,5]benzoxazocin-15-one 17,17-dioxide]", "values": [{"measurement": "IC50", "setting": "[1]", "value": "< 25", "unit": "nM"}]}, {"molecule": "COc1ccc2c(c1)OCC1CCCN(C)CCN(C)S(=O)(=O)NC(=O)c3ccc4c(C5CCCCC5)c-2n(c4c3)C1", "note": "(single isomer, unassigned; (-)) [Compound A37, (−)-14-cyclohexyl-3-methoxy-18,21-dimethyl-7,8-dihydro-6H-7,11-(propanoiminoethanoiminothioiminomethano)indolo[1,2-e][1,5]benzoxazocin-15-one 17,17-dioxide]", "values": [{"measurement": "IC50", "setting": "[1]", "value": "< 25", "unit": "nM"}]}]}
